Data on 27 compounds can be found in patent US20070049593A1 (priority 2004, published 2007).

Counter-ions that a name gives are not always drawn. Some results are limits rather than exact numbers.

The test deals with T1, HCV polymerase (Hepatitis C virus genotype 1b, UniProt P26663).
T1 construct: a region encoding NS5B (J Virol 1991 March, 65(3), 1105-13, 544 amino acids after deletion of 47 amino acids on the C-terminal); 6xHis (C); made in house; host or cells: Escherichia coli
T1 sequence (P26663 2420-2963): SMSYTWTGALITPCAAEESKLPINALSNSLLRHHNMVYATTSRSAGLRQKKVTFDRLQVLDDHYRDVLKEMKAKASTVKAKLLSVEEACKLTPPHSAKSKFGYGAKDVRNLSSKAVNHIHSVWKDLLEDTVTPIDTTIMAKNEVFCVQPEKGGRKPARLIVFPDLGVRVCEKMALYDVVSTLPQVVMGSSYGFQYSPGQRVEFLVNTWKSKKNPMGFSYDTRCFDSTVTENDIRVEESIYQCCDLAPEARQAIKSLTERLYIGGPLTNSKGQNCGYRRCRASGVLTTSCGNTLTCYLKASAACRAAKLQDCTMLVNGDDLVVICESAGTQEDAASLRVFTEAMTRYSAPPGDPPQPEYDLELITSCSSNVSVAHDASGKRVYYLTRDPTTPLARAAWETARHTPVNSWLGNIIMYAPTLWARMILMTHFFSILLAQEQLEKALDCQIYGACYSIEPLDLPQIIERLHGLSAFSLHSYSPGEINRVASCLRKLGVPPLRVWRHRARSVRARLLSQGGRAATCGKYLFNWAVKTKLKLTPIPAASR
The test can be described thus: biochemical. Further details: species or system HCV BK strain. In short, it runs like this: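 Recombinant HCV BK-strain NS5B (C-terminal 47 aa deleted, His6-tagged, E. coli), 0.5 μg/ml, run with 5 μg/ml in vitro-transcribed RNA template (polyU/3′X), ATP/GTP/CTP 50 μM, UTP 2 μM plus [3H]UTP, pH 7.5, 25° C, 90 min. TCA-precipitated RNA counted by scintillation; IC50 from activity with vs without compound.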
A word on the IC50: it is the concentration needed to halve the response being measured. High values mean weaker potency in that assay, low ones greater potency in that assay. `O=C(O)c1ccc2c(C3CCCCC3)c3n(c2c1)CCOc1c(-c2ccccc2)cccc1-3` [Example 2-273, 12-cyclohexyl-4-phenyl-6,7-dihydro-5-oxa-7a-azadibenzo[a,e]azulene-9-carboxylic acid] gave an IC50 below 100 nM.

With `CCN(CCN1CCCC(COC)C1)c1cccc2c1OCCn1c-2c(C2CCCCC2)c2ccc(C(=O)O)cc21` (stereo not drawn) [Example 2-274, 12-cyclohexyl-4-{N-ethyl-N-[2-(3-methoxymethylpiperidin-1-yl)ethyl]amino}-6,7-dihydro-5-oxa-7a-azadibenzo[a,e]azulene-9-carboxylic acid dihydrochloride], the half-inhibitory concentration (IC50) was below 100 nM.

Turning to `CCN(CCN1CCC(COC)CC1)c1cccc2c1OCCn1c-2c(C2CCCCC2)c2ccc(C(=O)O)cc21` [Example 2-275, 12-cyclohexyl-4-{N-ethyl-N-[2-(4-methoxymethylpiperidin-1-yl)ethyl]amino}-6,7-dihydro-5-oxa-7a-azadibenzo[a,e]azulene-9-carboxylic acid dihydrochloride], the IC50 was below 100 nM.

In turn, `CCCN(CCN1CCCCC1)c1cccc2c1OCCn1c-2c(C2CCCCC2)c2ccc(C(=O)NC(C)(C)C(=O)O)cc21` [Example 2-276, 2-[(12-cyclohexyl-4-{N-[2-(piperidin-1-yl)ethyl]-N-propylamino}-6,7-dihydro-5-oxa-7a-azadibenzo[a,e]azulene-9-carbonyl)amino]-2-methylpropionic acid] displayed an IC50 below 100 nM.

In the case of `O=C(O)c1ccc2c(C3CCCCC3)c3n(c2c1)CCOc1c-3cccc1N(CC(=O)N1CCCCC1)CC(=O)N1CCCCC1` [Example 2-277, 4-{bis[2-oxo-2-(piperidin-1-yl)ethyl]amino}-12-cyclohexyl-6,7-dihydro-5-oxa-7a-azadibenzo[a,e]azulene-9-carboxylic acid], the IC50 was below 100 nM.

`O=C(O)c1ccc2c(C3CCCCC3)c3n(c2c1)CCOc1c-3cccc1N(CCN1CCCCC1)CCN1CCCCC1` [Example 2-278, 4-{bis[2-(piperidin-1-yl)ethyl]amino}-12-cyclohexyl-6,7-dihydro-5-oxa-7a-azadibenzo[a,e]azulene-9-carboxylic acid dihydrochloride] displayed an IC50 below 100 nM.

`COC(=O)[C@H](Cc1ccc(F)cc1)NC(=O)c1ccc2c(C3CCCCC3)c3n(c2c1)CCOc1cc(OC)ccc1-3` [Example 2-279, methyl (S)-2-[(12-cyclohexyl-3-methoxy-6,7-dihydro-5-oxa-7a-azadibenzo[a,e]azulene-9-carbonyl)amino]-3-(4-fluorophenyl)propionate] yielded an IC50 below 100 nM.

`COC(=O)[C@H](Cc1c[nH]cn1)NC(=O)c1ccc2c(C3CCCCC3)c3n(c2c1)CCOc1cc(OC)ccc1-3` [Example 2-280, methyl (S)-2-[(12-cyclohexyl-3-methoxy-6,7-dihydro-5-oxa-7a-azadibenzo[a,e]azulene-9-carbonyl)amino]-3-(1H-imidazol-4-yl)propionate] yielded an IC50 below 100 nM.

`COC(=O)[C@@H]1Cc2ccc(O)cc2CN1C(=O)c1ccc2c(C3CCCCC3)c3n(c2c1)CCOc1cc(OC)ccc1-3` [Example 2-281, methyl (S)-2-(12-cyclohexyl-3-methoxy-6,7-dihydro-5-oxa-7a-azadibenzo[a,e]azulene-9-carbonyl)-7-hydroxy-1,2,3,4-tetrahydroisoquinoline-3-carboxylate] yielded an IC50 of 100 to 1000 nM.

Consider `COC(=O)c1cc2[nH]c(C(C)(C)NC(=O)c3ccc4c(C5CCCCC5)c5n(c4c3)CCOc3ccccc3-5)nc2cc1C` [Example 2-282, methyl 2-{1-[(12-cyclohexyl-6,7-dihydro-5-oxa-7a-azadibenzo[a,e]azulene-9-carbonyl)amino]-1-methylethyl}-6-methyl-3H-benzimidazole-5-carboxylate], for which the IC50 was below 100 nM.

As for `Cc1cc2nc(C(C)(C)NC(=O)c3ccc4c(C5CCCCC5)c5n(c4c3)CCOc3ccccc3-5)[nH]c2cc1C(=O)O` [Example 2-283], the IC50 was below 100 nM.

In turn, `COC(=O)Cn1c(C(C)(C)NC(=O)c2ccc3c(C4CCCCC4)c4n(c3c2)CCOc2ccccc2-4)nc2ccccc21` [Example 2-284, methyl (2-{1-[(12-cyclohexyl-6,7-dihydro-5-oxa-7a-azadibenzo[a,e]azulene-9-carbonyl)amino]-1-methylethyl}benzimidazol-1-yl)acetate] had a half-maximal inhibitory concentration (IC50) below 100 nM.

For `Cn1c(C(C)(C)NC(=O)c2ccc3c(C4CCCCC4)c4n(c3c2)CCOc2ccccc2-4)nc2ccccc21` [Example 2-285, N-[1-methyl-1-(1-methyl-1H-benzimidazol-2-yl)ethyl]-12-cyclohexyl-6,7-dihydro-5-oxa-7a-azadibenzo[a,e]azulene-9-carboxamide], the IC50 is below 100 nM.

Compound `Cn1c(NC(=O)c2ccc3c(C4CCCCC4)c4n(c3c2)CCOc2ccccc2-4)nc2ccccc21` [Example 2-286, N-(1-methyl-1H-benzimidazol-2-yl)-12-cyclohexyl-6,7-dihydro-5-oxa-7a-azadibenzo[a,e]azulene-9-carboxamide] showed an IC50 of 100 to 1000 nM.

With `O=C(O)CN1CCC(CO)(NC(=O)c2ccc3c(C4CCCCC4)c4n(c3c2)CCOc2ccccc2-4)CC1` [Example 2-287, {4-[(12-cyclohexyl-6,7-dihydro-5-oxa-7a-azadibenzo[a,e]azulene-9-carbonyl)amino]-4-hydroxymethylpiperidin-1-yl}acetic acid monohydrochloride], the IC50 was in the range of 100 to 1000 nM.

Consider `O=C(NCc1nc2ccccc2n1CCO)c1ccc2c(C3CCCCC3)c3n(c2c1)CCOc1ccccc1-3` [Example 2-288, N-[1-(2-hydroxyethyl)-1H-benzimidazol-2-ylmethyl]-12-cyclohexyl-6,7-dihydro-5-oxa-7a-azadibenzo[a,e]azulene-9-carboxamide], for which the IC50 was below 100 nM.

Turning to `CC(C)(NC(=O)c1ccc2c(C3CCCCC3)c3n(c2c1)CCOc1ccccc1-3)C(=O)N1CCOCC1` [Example 2-289, N-[1,1-dimethyl-2-(morpholin-4-yl)-2-oxoethyl]-12-cyclohexyl-6,7-dihydro-5-oxa-7a-azadibenzo[a,e]azulene-9-carboxamide], the IC50 is below 100 nM.

In the case of `CN1CCN(C(=O)C(C)(C)NC(=O)c2ccc3c(C4CCCCC4)c4n(c3c2)CCOc2ccccc2-4)CC1` [Example 2-290, N-[1,1-dimethyl-2-(4-methylpiperazin-1-yl)-2-oxoethyl]-12-cyclohexyl-6,7-dihydro-5-oxa-7a-azadibenzo[a,e]azulene-9-carboxamide], the IC50 was 100 to 1000 nM.

The compound `CC(C)(NC(=O)c1ccc2c(C3CCCCC3)c3n(c2c1)CCOc1ccccc1-3)C(=O)N1CCN(c2ccccc2)CC1` [Example 2-291, N-[1,1-dimethyl-2-oxo-2-(4-phenylpiperazin-1-yl)ethyl]-12-cyclohexyl-6,7-dihydro-5-oxa-7a-azadibenzo[a,e]azulene-9-carboxamide] gave an IC50 below 100 nM.

Consider `Cc1nc(C(C)(C)NC(=O)c2ccc3c(C4CCCCC4)c4n(c3c2)CCOc2ccccc2-4)n(CCO)c1C` [Example 2-292, N-{1-[1-(2-hydroxyethyl)-4,5-dimethyl-1H-imidazol-2-yl]-1-methylethyl}-12-cyclohexyl-6,7-dihydro-5-oxa-7a-azadibenzo[a,e]azulene-9-carboxamide], for which the IC50 lay in the range of 100 to 1000 nM.

`Cc1nc(C(C)(C)NC(=O)c2ccc3c(C4CCCCC4)c4n(c3c2)CCOc2ccccc2-4)n(CC(=O)N(C)C)c1C` [Example 2-293, N-[1-(1-dimethylcarbamoylmethyl-4,5-dimethyl-1H-imidazol-2-yl)-1-methylethyl]-12-cyclohexyl-6,7-dihydro-5-oxa-7a-azadibenzo[a,e]azulene-9-carboxamide] gave an IC50 of 100 to 1000 nM.

Turning to `COC1CCN(C(=O)C(C)(C)NC(=O)c2ccc3c(C4CCCCC4)c4n(c3c2)CCOc2ccccc2-4)CC1` [Example 2-294, N-[2-(4-methoxypiperidin-1-yl)-1,1-dimethyl-2-oxoethyl]-12-cyclohexyl-6,7-dihydro-5-oxa-7a-azadibenzo[a,e]azulene-9-carboxamide], the IC50 is below 100 nM.

On to `COCCN(C)C(=O)[C@H](Cc1ccc(O)cc1)NC(=O)c1ccc2c(C3CCCCC3)c3n(c2c1)CCOc1cc(OC)ccc1-3` [Example 2-295, N-{(S)-2-(4-hydroxyphenyl)-1-[N-(2-methoxyethyl)-N-methylcarbamoyl]ethyl}-12-cyclohexyl-3-methoxy-6,7-dihydro-5-oxa-7a-azadibenzo[a,e]azulene-9-carboxamide], for which the IC50 is below 100 nM.

With `COCCNC(=O)[C@H](Cc1ccc(O)cc1)NC(=O)c1ccc2c(C3CCCCC3)c3n(c2c1)CCOc1cc(OC)ccc1-3` [Example 2-296, N—[(S)-2-(4-hydroxyphenyl)-1-(2-methoxyethylcarbamoyl)ethyl]-12-cyclohexyl-3-methoxy-6,7-dihydro-5-oxa-7a-azadibenzo[a,e]azulene-9-carboxamide], the half-maximal inhibitory concentration (IC50) is below 100 nM.

In the case of `COc1ccc2c(c1)OCCn1c-2c(C2CCCCC2)c2ccc(C(=O)N[C@@H](Cc3ccc(O)cc3)C(=O)N3CCC(OC)CC3)cc21` [Example 2-297, N—[(S)-1-(4-hydroxybenzyl)-2-(4-methoxypiperidin-1-yl)-2-oxoethyl]-12-cyclohexyl-3-methoxy-6,7-dihydro-5-oxa-7a-azadibenzo[a,e]azulene-9-carboxamide], the IC50 was below 100 nM.

Turning to `O=C(O)c1ccc2c(C3CCCCC3)c3n(c2c1)CCOc1c(-c2cccnc2)cccc1-3` [Example 2-298, 12-cyclohexyl-4-(pyridin-3-yl)-6,7-dihydro-5-oxa-7a-azadibenzo[a,e]azulene-9-carboxylic acid hydrochloride], the IC50 is below 100 nM.

Regarding `O=C(O)c1ccc2c(C3CCCCC3)c3n(c2c1)CCOc1c(-c2ccncc2)cccc1-3` [Example 2-299, 12-cyclohexyl-4-(pyridin-4-yl)-6,7-dihydro-5-oxa-7a-azadibenzo[a,e]azulene-9-carboxylic acid monohydrochloride], the IC50 is below 100 nM.
